Source: US7153993B2, “Process for making polymorphic form A of 4-[6-acetyl-3-[3-(4-acetyl-3-hydroxy-2-propylphenylthio)propoxy]-2-propylphenoxy]butyric acid” (Medicinova, Inc., priority 2003, dated 2006)
Converted amounts (≈) assume the structure as drawn. One block for each molecule: values may come before it.

Key:
[1] = Solubility of compound (1) in ethanol/water (2:1); assay type: physicochemical; settings: stirred one hour
Protocol: Samples of compound (1) (5 g) were suspended in ethanol/water (2:1, 100 mL) and stirred for one hour at temperatures of 22° C., 30° C., and 40° C., respectively. The suspensions were filtered and the solids dried in a vacuum oven at room temperature overnight to give the insoluble material. The solubilities were calculated by subtractive means based on recovered material.

[2] = Solubility of crystalline polymorphs in ether; assay type: physicochemical
From the text: After re-crystallization with individual solvents, compound (1) was subjected to powder X-ray diffractometry, thermal analysis and determination of solubility in ether; thus an exploratory evaluation of the crystalline polymorphism was made.

[3] = Oral activity for treatment of asthma and allergic diseases; assay type: in vivo

SMILES: CCCc1c(SCCCOc2ccc(C(C)=O)c(OCCCC(=O)O)c2CCC)ccc(C(C)=O)c1O [Compound (1), 4-[6-acetyl-3-[3-(4-acetyl-3-hydroxy-2-propylphenylthio)propoxy]-2-propylphenoxy]butyric acid]
oral activity for treatment of asthma and allergic diseases [3]: orally active

SMILES: CCCc1c(SCCCOc2ccc(C(C)=O)c(OCCCC(=O)O)c2CCC)ccc(C(C)=O)c1O [Form III, 4-[6-acetyl-3-[3-(4-acetyl-3-hydroxy-2-propylphenylthio)propoxy]-2-propylphenoxy]butyric acid]
Solubility in ether ([2]; ether, listed as III): 35.3 mg/mL (≈ 66.5 mM)

SMILES: CCCc1c(SCCCOc2ccc(C(C)=O)c(OCCCC(=O)O)c2CCC)ccc(C(C)=O)c1O [Form I, 4-[6-acetyl-3-[3-(4-acetyl-3-hydroxy-2-propylphenylthio)propoxy]-2-propylphenoxy]butyric acid]
Solubility in ether ([2]; ether, listed as I): 36.7 mg/mL (≈ 69.2 mM)

Other lines, results leading:

Solubility in ethanol/water (2:1) ([1]; 22° C.): 3.4 mg/mL (≈ 6.41 mM) | Solubility in ethanol/water (2:1) ([1]; 30° C.): 6.1 mg/mL (≈ 11.5 mM) | Solubility in ethanol/water (2:1) ([1]; 40° C.): 17.2 mg/mL (≈ 32.4 mM)
SMILES: CCCc1c(SCCCOc2ccc(C(C)=O)c(OCCCC(=O)O)c2CCC)ccc(C(C)=O)c1O [undesired monoclinic polymorph, 4-[6-acetyl-3-[3-(4-acetyl-3-hydroxy-2-propylphenylthio)propoxy]-2-propylphenoxy]butyric acid]

solubility ([2]; ether, organic solvent or mixture): 40.5 mg/mL (≈ 76.3 mM)
SMILES: CCCc1c(SCCCOc2ccc(C(C)=O)c(OCCCC(=O)O)c2CCC)ccc(C(C)=O)c1O [Form II, 4-[6-acetyl-3-[3-(4-acetyl-3-hydroxy-2-propylphenylthio)propoxy]-2-propylphenoxy]butyric acid]

Solubility in ether ([2]; ether, listed as IV): 45.8 mg/mL (≈ 86.3 mM)
SMILES: CCCc1c(SCCCOc2ccc(C(C)=O)c(OCCCC(=O)O)c2CCC)ccc(C(C)=O)c1O [Form IV, 4-[6-acetyl-3-[3-(4-acetyl-3-hydroxy-2-propylphenylthio)propoxy]-2-propylphenoxy]butyric acid]

Solubility in ether ([2]; ether, listed as V): 47.6 mg/mL (≈ 89.7 mM) | solubility compared to the other polymorphs ([2]; qualitative statement, solvent not stated): superior to the other polymorphs | Solubility in ethanol/water (2:1) ([1]; 30° C., listed as V (form A)): 15.7 mg/mL (≈ 29.6 mM) | Solubility in ethanol/water (2:1) ([1]; 40° C., listed as V (form A)): 46 mg/mL (≈ 86.7 mM) | solubility at 1 h ([1]; ethanol/water (2:1), 22 °C, organic solvent or mixture, thermodynamic from solid, 22° C.): 6.7 mg/mL (≈ 12.6 mM)
SMILES: CCCc1c(SCCCOc2ccc(C(C)=O)c(OCCCC(=O)O)c2CCC)ccc(C(C)=O)c1O [Form V, 4-[6-acetyl-3-[3-(4-acetyl-3-hydroxy-2-propylphenylthio)propoxy]-2-propylphenoxy]butyric acid]
